Experimental data: publication PMC3411462, “Long-acting κ opioid antagonists nor-BNI, GNTI and JDTic: pharmacokinetics in mice and lipophilicity” (BMC Pharmacology, 2012)
Values joined by “and” are separate entries in the source; they are usually repeats but may differ in a detail not shown here. Equal values may be shown once. “Also recorded” adds a separate entry of the source. Read-outs that look alike come from different tables or passages of the source.

Experiments:
human P-gp = target: T1, human P-gp (Homo sapiens, UniProt P08183); assay: LLC-PK1-MDR1 cell permeation and efflux; assay type: in vitro ADME; conditions: cells expressing human P-gp
T1 construct: expressed in transfected cells; host or cells: LLC-PK1 (pig kidney epithelial cells) transfected with human MDR1 at Amgen
Description: (§1) Pig kidney epithelial cells (LLC-PK1) were obtained from American Type Culture Collection (Manassas, VA). Transfection with human MDR1 gene was conducted at Amgen (Thousand Oaks, CA). Bi-directional permeation assays were performed as described previously. […] Cells were seeded onto Transwell filter membranes (0.4 μm pore size, surface area = 0.7 cm2) at a density of 200,000 cells/well. Compound incubations (in duplicate) were performed 5 days post-seeding. To determine efflux, compounds were tested at 5 μM in the presence of 0.1% BSA. […] Samples were analyzed by LC-MS-MS.

P-gp (human MDR1) = target: T2, P-gp (human MDR1) (Homo sapiens, UniProt P08183); assay: LLC-PK1-MDR1 cell permeation and efflux; assay type: in vitro ADME
T2 construct: expressed in transfected cells; host or cells: LLC-PK1 (pig kidney epithelial cells) transfected with human MDR1 at Amgen
Description: as §1

mice = assay: Fatalities and behavioral effects after i.p. administration
Description: Experiments were performed between 10 am and 6 pm. Mice were not used in other experiments, or exposed to other drugs, before testing began.
Doses are reported by weight of the specified salt. Intraperitoneal injections were administered in distilled water vehicle (10 mL kg^-1). Body mass was measured to ±0.1 g. Some values were inadvertently measured on a low-precision balance (± 2.5 g); these timepoints were replicated at ±0.1 g.

[1] = Plasma binding (unbound fraction by ultracentrifugation); assay type: in vitro ADME; conditions: 5 μM drug, mean, n = 3
Description: Unbound fractions in brain homogenate and plasma were determined by ultracentrifugation as described previously. Briefly, drug-spiked matrices (5 μM drug in plasma or brain homogenate) were centrifuged at 600,000 g for 5 h at 37 °C (plasma) or 5 °C (brain). Aliquots of the middle (water) layer were added to an equal volume of blank matrix and extracted with 5 volumes of acetonitrile containing internal standard. Aliquots of the original spiked matrix were mixed with an equal volume of blank matrix and 2 volumes of plasma ultrafiltrate (plasma) or phosphate-buffered saline (tissue) and extracted with 10 volumes of acetonitrile. Extracts were centrifuged and analyzed by LC-MS-MS. Fraction unbound was calculated from the ratio of concentration in the water layer to that in the original spiked matrix, corrected for dilution as described previously.

[2] = Brain and plasma concentrations in mice after intraperitoneal administration (LC-MS-MS), non-compartmental analysis; assay type: in vivo; conditions: for [drug],plasma (free base equivalent): listed as GNTI.2HCl.H2O; for [drug],plasma (free base equivalent) / concentration at 0.5 h / concentration at 1 h / concentration at 2 h / concentration at 4 h / concentration at 24 h / AUC(0-inf) / CL/F / Vd/F: 10 mg/kg
Description: Doses are reported by weight of the specified salt. […] Body mass was measured to ±0.1 g.
Mice were sacrificed by cervical dislocation, then decapitated for collection of brain and blood samples. Trunk blood was collected in 1.5 mL polypropylene micro-centrifuge tubes, shaken with a few crystals of EDTA and cooled in ice-water. Samples were centrifuged at 14,000 rpm (revolutions per minute) for 15 minutes at 3 °C, then stored in glass sample vials at −20 °C until analysis. Brains were removed and immersed for 30 seconds in 2-methylbutane over dry ice, then stored in polypropylene tubes at −20 °C until sample preparation. Sample tubes were thawed in ice-water, distilled water was added (2:1 by weight) and the brain homogenized with a probe sonicator for 3 minutes over ice-water (Fisher Sonic Dismembrator 300 at 35% power). The probe was rinsed with ethanol and distilled water between samples. Brain homogenate was stored in glass sample vials at −20 °C until analysis by LC-MS-MS.
Drug concentrations (ng mL^-1) refer to the free base, and were measured by liquid chromatography-tandem mass spectrometry (LC-MS-MS) as described previously. Briefly, samples were shaken with 3 volumes of methanol and centrifuged at 3000 g. Aliquots of the supernatants were diluted with 5 volumes of water containing an appropriate internal standard. Extracts from in vitro and in vivo experiments were analyzed by multiple reaction monitoring on an API3000 or API4000 LC-MS-MS system with electrospray ion source, controlled and analyzed using the Analyst software package (Applied Biosystems, Foster City, CA). Chromatography was conducted on a Sprite Armor C18 analytical column (20 × 2.1 mm, 10 μm particle size, Analytical Sales and Products, Pompton Plains, NJ) with a 0.5 μm PEEK guard filter. Compounds were eluted with a gradient from 2% to 95% acetonitrile in water, both containing 0.1% formic acid. Compounds were detected in positive ion mode, tuned to the mass transition with the largest intensity. Analyte concentrations were determined by comparison of analyte:internal standard peak area ratios to those of standards prepared in the appropriate matrices.
For calculation of mean concentrations, the earliest values below the MRC were substituted by MRC ÷ 2, as recommended elswhere. Pharmacokinetic parameters were calculated from mean concentrations using PKSolver, employing non-compartmental analysis for extravascular administration. Curves in figures were fitted using Origin 8.5 (OriginLab, Northampton, MA) using 2-compartment models. Confidence intervals and two-tailed p values (unpaired t test) were calculated using Graphpad Quickcalcs. One outlier was identified using Grubbs' test (p < 0.01) and excluded from the analysis; see Additional file 1.

[3] = 0.5 h, 10 mg/kg i.p., individual mice
[4] = 1 h, 10 mg/kg i.p., individual mice
[5] = 2 h, 10 mg/kg i.p., individual mice
[6] = male, Swiss-Webster, mouse, ip, plasma NCA, 10 mg/kg i.p.

T2 sequence (P08183 whole entry): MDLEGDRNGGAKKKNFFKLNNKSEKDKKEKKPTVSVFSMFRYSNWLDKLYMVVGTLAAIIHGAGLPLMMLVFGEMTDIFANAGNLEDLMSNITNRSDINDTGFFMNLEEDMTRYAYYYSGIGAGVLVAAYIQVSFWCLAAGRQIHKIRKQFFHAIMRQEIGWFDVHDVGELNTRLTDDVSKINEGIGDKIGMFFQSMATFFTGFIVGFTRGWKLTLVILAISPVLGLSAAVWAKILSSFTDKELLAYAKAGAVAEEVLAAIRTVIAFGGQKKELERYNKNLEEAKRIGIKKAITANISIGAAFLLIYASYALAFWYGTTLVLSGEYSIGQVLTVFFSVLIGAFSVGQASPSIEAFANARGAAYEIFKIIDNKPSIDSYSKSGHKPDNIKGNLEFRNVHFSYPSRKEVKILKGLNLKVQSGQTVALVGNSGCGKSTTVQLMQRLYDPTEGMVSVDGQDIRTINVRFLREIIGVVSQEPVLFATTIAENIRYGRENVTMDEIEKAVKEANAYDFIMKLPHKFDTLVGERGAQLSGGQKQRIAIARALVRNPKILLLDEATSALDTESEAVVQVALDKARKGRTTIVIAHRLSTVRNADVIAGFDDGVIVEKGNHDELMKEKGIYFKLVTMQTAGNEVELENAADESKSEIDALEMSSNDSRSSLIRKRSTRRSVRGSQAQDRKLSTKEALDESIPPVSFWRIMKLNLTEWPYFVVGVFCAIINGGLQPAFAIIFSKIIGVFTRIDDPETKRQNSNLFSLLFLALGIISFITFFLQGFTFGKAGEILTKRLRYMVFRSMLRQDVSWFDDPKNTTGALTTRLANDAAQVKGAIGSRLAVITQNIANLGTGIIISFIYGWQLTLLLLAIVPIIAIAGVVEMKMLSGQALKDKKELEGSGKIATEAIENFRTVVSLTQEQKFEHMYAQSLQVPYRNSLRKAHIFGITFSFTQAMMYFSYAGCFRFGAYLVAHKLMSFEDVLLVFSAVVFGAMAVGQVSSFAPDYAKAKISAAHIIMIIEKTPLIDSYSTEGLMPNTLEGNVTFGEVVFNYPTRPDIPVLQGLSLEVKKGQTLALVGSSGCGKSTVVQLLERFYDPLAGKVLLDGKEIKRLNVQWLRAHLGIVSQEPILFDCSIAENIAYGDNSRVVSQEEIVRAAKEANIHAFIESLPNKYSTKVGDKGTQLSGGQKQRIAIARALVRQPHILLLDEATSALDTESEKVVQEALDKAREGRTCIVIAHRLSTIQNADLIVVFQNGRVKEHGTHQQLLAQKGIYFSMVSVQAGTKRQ
T1 sequence (P08183 whole entry): as above

## N=C(N)Nc1ccc2[nH]c3c(c2c1)C[C@@]1(O)[C@H]2Cc4ccc(O)c5c4[C@@]1(CCN2CC1CC1)[C@H]3O5 [GNTI, 5’-guanidinonaltrindole]
Human P-gp
  Active transport / P-gp-mediated efflux: did not; also recorded: No active transport
P-gp (human MDR1); pig (LLC-PK1 cells) transfected with human MDR1, LLC-PK1, apical to basolateral, 5 μM, 0.1% BSA, 120 min, n = 2
  Papp A→B at 120 min, 5 μM: 0.4 ×10⁻⁶ cm/s
P-gp (human MDR1); pig (LLC-PK1 cells) transfected with human MDR1, LLC-PK1, basolateral to apical, 5 μM, 0.1% BSA, 120 min, n = 2
  Papp B→A at 120 min, 5 μM: 0.6 ×10⁻⁶ cm/s
P-gp (human MDR1); pig (LLC-PK1 cells) transfected with human MDR1, LLC-PK1-MDR1 monolayers, read-out: Efflux ratio (B → A/A → B)
  efflux ratio at 120 min, 5 μM: 1.5
mice; 10 mg kg^-1, 15 mice monitored for at least 30 minutes
  Fatalities: no fatalities
mice; 30 mg kg^-1
  Time to death after injection: ≤ 11 min
mice; 30 mg kg^-1, three mice
  Fatalities: all three mice unexpectedly became ataxic, followed by convulsions and death
[1]
  fraction unbound at 5 h, 5 μM: 0.28
[2]; 10 mg kg^-1 i.p., mice
  Time of maximal mean plasma level: 30 min
[2]; [3]
  [drug],brain (free base equivalent): <120 ng/g
  [drug],plasma (free base equivalent): 3610 ng/mL and 1790 ng/mL and 3840 ng/mL
[2]; [4]
  [drug],brain (free base equivalent): <120 ng/g
  [drug],plasma (free base equivalent): 1750 ng/mL and 2420 ng/mL and 4880 ng/mL
[2]; [5]
  [drug],brain (free base equivalent): <120 ng/g
  [drug],plasma (free base equivalent): 1120 ng/mL and 3700 ng/mL and 2910 ng/mL
[2]; 4 h, 10 mg/kg i.p., individual mice
  [drug],plasma (free base equivalent): 114 ng/mL and 206 ng/mL
[2]; 24 h, 10 mg/kg i.p., individual mice
  [drug],plasma (free base equivalent): <13 ng/mL
[2]; all timepoints, 10 mg kg^-1 i.p.
  Brain levels (below MRC): < 120 ng/mL
[2]; brain, 10 mg kg^-1 i.p., mice
  C max,brain: < 120 ng/mL
[2]; by 24 hours, 10 mg kg^-1 i.p.
  Decline of mean plasma concentration from peak: at least 98%
[2]; male, Swiss-Webster, mouse, brain and plasma (unbound), intraperitoneal, postmortem samples, 13–18 minutes after 39 mg kg^-1 GNTI·2CF3CO2H, read-out: Cmax,brain,u/Cmax,p,u
  Kp uu: < 0.0007
[2]; male, Swiss-Webster, mouse, brain and plasma, intraperitoneal, postmortem samples, 13–18 minutes after 39 mg kg^-1 GNTI·2CF3CO2H, read-out: Cmax,brain/Cmax,p
  Kp: 0.0085
[2]; male, Swiss-Webster, mouse, brain, ip, 0.5 h, 10 mg/kg i.p., individual mice, read-out: [drug],brain (free base equivalent)
  concentration at 0.5 h: < 120 ng/g
[2]; male, Swiss-Webster, mouse, brain, ip, 0.5 h, 10 mg/kg i.p., read-out: mean (brain)
  concentration at 0.5 h: < 120 ng/g
[2]; male, Swiss-Webster, mouse, brain, ip, 1 h, 10 mg/kg i.p., individual mice, read-out: [drug],brain (free base equivalent)
  concentration at 1 h: < 120 ng/g
[2]; male, Swiss-Webster, mouse, brain, ip, 2 h, 10 mg/kg i.p., individual mice, read-out: [drug],brain (free base equivalent)
  concentration at 2 h: < 120 ng/g
[2]; male, Swiss-Webster, mouse, in vivo, ip, ·2HCl salts, 10 mg kg^-1 i.p., mice
  Tmax: 30 min
[2]; [6]
  AUC(0-t): 9450 ng·h/mL
  Tmax: 30 min
[2]; male, Swiss-Webster, mouse, ip, plasma NCA, 10 mg/kg i.p., read-out: Lambda_z (converted)
  k el: 6.68e-05 s⁻¹
[2]; male, Swiss-Webster, mouse, ip, plasma NCA, 10 mg/kg i.p., read-out: MRT 0-inf_obs
  MRT inf: 2.18 h
[2]; male, Swiss-Webster, mouse, ip, plasma NCA, 10 mg/kg i.p., read-out: t1/2 (converted)
  half-life: 173 min
[2]; male, Swiss-Webster, mouse, ip, plasma, 10 mg kg^-1 i.p., mice, read-out: C max,p
  Cmax: 3080 ng/mL
[2]; male, Swiss-Webster, mouse, plasma, intraperitoneal, 0.5 h, read-out: Conc (plasma, NCA input)
  concentration at 0.5 h: 3080 ng/mL
[2]; male, Swiss-Webster, mouse, plasma, intraperitoneal, 1 h, read-out: Conc (plasma, NCA input)
  concentration at 1 h: 3020 ng/mL
[2]; male, Swiss-Webster, mouse, plasma, intraperitoneal, 2 h, read-out: Conc (plasma, NCA input)
  concentration at 2 h: 2580 ng/mL
[2]; male, Swiss-Webster, mouse, plasma, intraperitoneal, 4 h, read-out: Conc (plasma, NCA input)
  concentration at 4 h: 154 ng/mL
[2]; male, Swiss-Webster, mouse, plasma, intraperitoneal, 24 h, read-out: Conc (plasma, NCA input)
  concentration at 24 h: 8.8 ng/mL
[2]; male, Swiss-Webster, mouse, plasma, ip, 0.5 h, 10 mg/kg i.p., read-out: mean (plasma)
  concentration at 0.5 h: 3080 ng/mL
[2]; male, Swiss-Webster, mouse, plasma, ip, 1 h, 10 mg/kg i.p., read-out: mean (plasma)
  concentration at 1 h: 3020 ng/mL
[2]; male, Swiss-Webster, mouse, plasma, ip, 2 h, 10 mg/kg i.p., read-out: mean (plasma)
  concentration at 2 h: 2580 ng/mL
[2]; male, Swiss-Webster, mouse, plasma, ip, 4 h, 10 mg/kg i.p., individual mice, read-out: [drug],plasma (free base equivalent)
  concentration at 4 h: 142 ng/mL
[2]; male, Swiss-Webster, mouse, plasma, ip, 4 h, 10 mg/kg i.p., read-out: mean (plasma)
  concentration at 4 h: 154 ng/mL
[2]; male, Swiss-Webster, mouse, plasma, ip, 24 h, 10 mg/kg i.p., individual mice, read-out: [drug],plasma (free base equivalent)
  concentration at 24 h: 13 ng/mL
[2]; male, Swiss-Webster, mouse, plasma, ip, 24 h, 10 mg/kg i.p., <MRC substituted by MRC/2, read-out: mean (plasma)
  concentration at 24 h: 9 ng/mL
[2]; male, Swiss-Webster, mouse, plasma, ip, plasma NCA, 10 mg/kg i.p., read-out: AUC 0-inf_obs
  AUC(0-inf): 9490 ng·h/mL
[2]; male, Swiss-Webster, mouse, plasma, ip, plasma NCA, 10 mg/kg i.p., read-out: Cl/F_obs (converted)
  CL/F: 17.6 mL/min/kg
[2]; male, Swiss-Webster, mouse, plasma, ip, plasma NCA, 10 mg/kg i.p., read-out: Vz/F_obs
  Vd/F: 4.38 L/kg
[2]; male, Swiss-Webster, mouse, plasma, ip, plasma, 10 mg kg^-1 i.p., non-compartmental analysis, read-out: AUC 0–∞,p
  AUC(0-inf): 9490 ng·h/mL
[2]; male, Swiss-Webster, mouse, plasma, ip, plasma, 10 mg kg^-1 i.p., non-compartmental analysis, read-out: CL/F (converted)
  CL/F: 16.7 mL/min/kg
[2]; male, Swiss-Webster, mouse, plasma, ip, plasma, 10 mg kg^-1 i.p., non-compartmental analysis, read-out: V z /F
  Vd/F: 4.4 L/kg
[2]; plasma NCA, 10 mg/kg i.p.
  AUMC 0-inf_obs: 20681.1 ng/ml*h^2
  Tlag: 0 h
[2]; unbound brain, 10 mg kg^-1 i.p., in vivo brain binding assumed at least 3-fold greater than homogenate
  C max,brain,u: < 6 nmol/L
